Experimental data from ChEMBL document CHEMBL1201862, “PubChem BioAssay data set” (2004).
Activity calls are given as the source filed them. Rule as the data show it: actives have a measured IC50 and inactives only a lower limit.

These molecules were tested against Envelope glycoprotein gp160 (Human immunodeficiency virus 1, UniProt Q6QLK5) (assay: cell-free HIV fusion peptide-binding blockers – biochemical, uHTS, fluorescence dequenching, […] (AID 1986)).
Sequence of Envelope glycoprotein gp160 (Q6QLK5 whole entry, the tested form may be a part): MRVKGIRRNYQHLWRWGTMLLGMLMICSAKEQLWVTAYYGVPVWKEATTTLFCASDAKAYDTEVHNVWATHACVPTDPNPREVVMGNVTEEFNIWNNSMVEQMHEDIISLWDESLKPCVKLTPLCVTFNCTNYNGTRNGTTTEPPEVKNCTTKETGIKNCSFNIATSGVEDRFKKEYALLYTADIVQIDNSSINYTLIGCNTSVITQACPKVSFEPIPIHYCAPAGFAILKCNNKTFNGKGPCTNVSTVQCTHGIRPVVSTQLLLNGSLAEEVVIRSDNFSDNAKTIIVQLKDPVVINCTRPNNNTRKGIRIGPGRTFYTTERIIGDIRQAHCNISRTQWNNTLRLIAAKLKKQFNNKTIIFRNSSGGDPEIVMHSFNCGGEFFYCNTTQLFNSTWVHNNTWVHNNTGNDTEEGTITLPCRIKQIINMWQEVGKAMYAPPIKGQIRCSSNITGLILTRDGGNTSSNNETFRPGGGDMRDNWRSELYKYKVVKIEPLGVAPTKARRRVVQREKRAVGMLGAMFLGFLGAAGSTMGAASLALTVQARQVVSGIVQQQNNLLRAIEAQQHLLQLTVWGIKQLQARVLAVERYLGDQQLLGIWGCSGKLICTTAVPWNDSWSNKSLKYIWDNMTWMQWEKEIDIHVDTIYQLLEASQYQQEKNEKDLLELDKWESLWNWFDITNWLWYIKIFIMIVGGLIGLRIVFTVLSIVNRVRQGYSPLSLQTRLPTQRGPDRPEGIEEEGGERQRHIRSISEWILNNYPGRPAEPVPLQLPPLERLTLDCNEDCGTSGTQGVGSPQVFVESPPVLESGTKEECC
In the case of `O=C(O)COc1ccc(Br)cc1C(c1c(C(=O)O)[nH]c2ccccc12)c1c(C(=O)O)[nH]c2ccccc12`, the IC50 is reported as 5.76 µM (active). In the case of `CC1=NN(c2ccc(C(=O)O)cc2)C(=O)/C1=C\c1ccc(OC(=O)c2cccs2)cc1`, the IC50 is reported as 12.6 µM (active). For `COc1ccc(/N=C2\S/C(=C\c3ccc(OCC(=O)O)cc3)C(=O)N2CCc2c[nH]c3ccccc23)cc1`, the IC50 was 12.6 µM (active). With `CC(C)NC(=O)c1sc(=S)n2c1[nH]c(=O)c1ccc(C(=O)NCCc3ccc(Cl)cc3)cc12` the IC50 was 95.7 µM (active).
